# Source: ChEMBL document CHEMBL1201862, “PubChem BioAssay data set” (2004)
# Active and inactive are the calls of the source. No stated cut-off is given here; in the data, actives have a measured IC50 and inactives only a lower limit.
# Target: Envelope glycoprotein gp160 (Human immunodeficiency virus 1, UniProt Q6QLK5)
# Assay: inhibitors of HIV fusion peptide binding, primary screen, biochemical, uHTS, fluorescence dequenching (AID 1986)
# Sequence of Envelope glycoprotein gp160 (Q6QLK5 whole entry, the tested form may be a part): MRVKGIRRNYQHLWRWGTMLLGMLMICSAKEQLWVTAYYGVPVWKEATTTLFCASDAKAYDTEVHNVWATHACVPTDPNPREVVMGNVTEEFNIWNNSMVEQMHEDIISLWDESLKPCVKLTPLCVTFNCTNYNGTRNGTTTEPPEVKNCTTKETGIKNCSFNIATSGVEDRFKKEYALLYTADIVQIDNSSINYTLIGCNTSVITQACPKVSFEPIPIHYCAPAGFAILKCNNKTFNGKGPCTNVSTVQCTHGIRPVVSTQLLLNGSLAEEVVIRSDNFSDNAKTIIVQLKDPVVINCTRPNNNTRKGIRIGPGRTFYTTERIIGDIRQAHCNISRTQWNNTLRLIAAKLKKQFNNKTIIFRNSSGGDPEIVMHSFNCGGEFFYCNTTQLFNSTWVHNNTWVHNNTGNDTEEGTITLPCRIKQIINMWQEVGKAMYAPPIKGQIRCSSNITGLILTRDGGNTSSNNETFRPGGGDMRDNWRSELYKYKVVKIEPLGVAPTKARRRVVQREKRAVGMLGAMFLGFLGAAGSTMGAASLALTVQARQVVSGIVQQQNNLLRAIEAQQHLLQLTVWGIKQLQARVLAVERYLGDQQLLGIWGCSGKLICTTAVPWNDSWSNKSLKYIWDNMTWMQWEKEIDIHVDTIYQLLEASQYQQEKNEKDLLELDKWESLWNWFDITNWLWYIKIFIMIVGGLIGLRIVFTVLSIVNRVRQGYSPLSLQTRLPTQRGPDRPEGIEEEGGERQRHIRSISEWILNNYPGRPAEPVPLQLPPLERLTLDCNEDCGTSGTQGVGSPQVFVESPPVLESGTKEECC
row,Compound,IC50
1,O=C(O)CN1C(=O)/C(=C\c2cccc(OCc3ccc(Cl)cc3)c2)SC1=S,13.6 µM (active)
2,CCCCCCc1c(C)c2ccc(OCC(=O)N[C@@H](Cc3ccccc3)C(=O)O)cc2oc1=O,22.8 µM (active)
3,O=C1NC(=S)N(c2ccc(F)cc2)C(=O)/C1=C/c1ccco1,15.6 µM (active)
4,Cc1cc(C)cc(-n2cccc2/C=C2/C(=N)N3C(=NC2=O)SN=C3S(C)(=O)=O)c1,11.6 µM (active)
5,O=[N+]([O-])c1cccc(S(=O)(=O)Nc2nc3ccccc3nc2Nc2cccc(S(=O)(=O)N3CCCCC3)c2)c1,14.5 µM (active)
6,Cc1ccc(C)c(S(=O)(=O)/N=C2\C=C(NS(=O)(=O)c3ccccc3)C(=O)c3ccccc32)c1,12.9 µM (active)
